Laboratory results taken from patent US10314815B2, “Polymorph of granaticin B” (Sloan-Kettering Institute for Cancer Research, priority 2014, dated 2019).

How the values were obtained:
Type in all cases: physicochemical
[1] = Stability of crystalline Form A compared with amorphous Compound 1; settings: crystalline Form A vs amorphous; traditional purification process
Hygroscopicity of Form A = test: Hygroscopicity of Form A
[2] = UV-Vis pH-dependent colour change (bathochromic shift) of MSK-777; settings: colour change red to blue, basic conditions; read-out: approximate averaged pKa values of the acidic phenol protons (inflection point of colour change)
Description: These absorptions indicate a benzoisochromanequinones (BIQ) chromophore. The broad adsorption in the visible region (around 527 nm) is responsible for the intense red color of the substance.
Under basic conditions (pH>8) a bathochromic shift of Vis-absorption (ca. 40 nm) is observed, indicating ionization of slightly acidic phenolic protons. This pH dependent indicatory behavior is characteristic to the BIQ chromophore and is visually observed as the solution turns from red to blue.

[3] = Chemical degradation under acidic conditions observed by HPLC; settings: acidic conditions (pH<4), ambient temperature
Description: The degradation is caused by hydrolysis of the glycosidic bond, forming Granaticin A, the biosynthetic precursor of MSK-777. Consistently, in a time dependent HPLC experiment a simultaneous increase of Granaticin A chromatographic areas and decrease of Granaticin B areas is observed. The hydrolysis experiment and the almost identical UV spectra indicate that MSK-777 (Granaticin B) and Granatioin A share the same core structure and chromophore. Therefore the structural difference between Granaticin A and MSK-777 arises from a hydrolysable part (sugar moiety) of the latter compound.

stability of solid form [1] | hygroscopicity (Hygroscopicity of Form A) | pKa [2] | degradation (hydrolysis of the glycosidic bond forming Granaticin A) [3] | SMILES
less stable and prone to degradation |  |  |  | CC1OC2CC(=O)OC2C2=C1C(=O)c1c(O)c3c(c(O)c1C2=O)C1CC(OC2CCC(O)C(C)O2)C3(O)C(C)O1 (centres unmarked) [Amorphous Compound 1, granaticin B]
more stable than amorphous Compound 1 | substantially non-hygroscopic |  |  | CC1OC2CC(=O)OC2C2=C1C(=O)c1c(O)c3c(c(O)c1C2=O)C1CC(OC2CCC(O)C(C)O2)C3(O)C(C)O1 (centres unmarked) [Form A of Compound 1, granaticin B]
 |  | ~8.5 | slow degradation | CC1OC2CC(=O)OC2C2=C1C(=O)c1c(O)c3c(c(O)c1C2=O)C1CC(OC2CCC(O)C(C)O2)C3(O)C(C)O1 (centres unmarked) [MSK-777, granaticin B]
